Source: patent publication US20220167645A1, “METHODS OF IMPROVING FISH FEED CONVERSION RATE AND SURVIVAL” (AQUINOVO LTD., priority 2019, published 2022)
Numbered stars: 1 amine (or outer) side, 2 acyl side, 3 side chain; on linkers, the order of the positions; unused ones are H or OH. Square brackets hold non-standard residues; d marks the D form. Suc = O=C(CCC(=O)[*:2])[*:1]; NMeV = CN[C@H](C(=O)O)C(C)C; βAla = NCCC(=O)O

System: Tilapia fish
Assay: Experiment #3: tilapia fed AN6-coated feed, treatment schedules 1 to 8 (survival, weight, length, size distribution, FCR)
Format: in vivo
Conditions: for Average weight/fish (g) / Total weight/cage (g) / Average FCR/cage / Average density (body/cage) / Average weight gain/fish (g): D 236 to D 279, % change relative to control; for % big fish (Big fish 279 dph >1000 g) / % small fish (Small fish 279 dph >476 g) / Δ Treatment - Control (%) big fish (>1000 g) / Δ Treatment - Control (%) small fish (>476 g) / Big fish # (Big fish 279 dph >1000 g) / Small fish # (Small fish 279 dph): 279 dph
Procedure: The following fish feed was used in this experiment: MeM (powder, manufactured by Bern Aqua), Nanolis P1, P2 (pellet sizes of 1 mm, 1.2-1.5 mm, respectively, manufactured by Ocialis) and Tilaphi 2, 3 & 4 (pellet sizes of 2 mm, 3-4 mm & 5.5 mm manufactured by Ocialis). The feed content is in described in Table 4.
Feed was coated using the following general procedure: Different amounts of the peptide AN6 (SEQ ID NO: 6) were prepared by dissolving the peptide in Tris-HCl solution (50 mM, pH=8.8) in ratio of 15 mg peptide to 1.25 ml Tris-HCl solution. Then, each of the various solutions was mixed with 3 Kg of the basic feed pellets (depending on fish size) using an electric mixer. The peptide-feed mixtures where then dried either in oven at 40° C. for 24 hours or in drying drum (at room temperature) for few hours to form coated pellets.
Tilapia fish (n=4800) were raised from day 10 (0.05 g) post-hatch (dph) in indoor tanks and then transferred to outdoor cages in ponds (40-279 dph). Each cage/tank is an experimental unit. The fish were fed to apparent satiation 2-4 times a day with feed appropriate to their age and treatment as described in Table 5.
The trial included total 48 cages representing 8 treatments, with 6 repeats each. Each cage contained about 100 fish. […] Fed to fish throughout the entire growth-trial period (for 279 days); • Treatment 2 (5 ppm from 10 dph for 120 days): The control diet with the addition of 5 mg peptide/kg of diet (Feed F). Fish were fed the peptide enriched diet for 120 days (4 months), from 10 days of age (D0—the first day of the experiment) to 130 days of age (D120), and the control diet during the last 6 months (159 days) (Feed E); • Treatment 3 (10 ppm from 10 dph for 60 days): The control diet with the addition of 10 mg peptide/kg of diet (Feed G). […] Fish were fed the peptide enriched diet for 90 days (3 months) from 10 days of age (D0) to 100 days of age (D90) and the control diet for the last 7 months (189 days) (Feed E); • Treatment 5 (10 ppm from 10 dph for 120 days): The control diet with the addition of 10 mg peptide/kg of diet (Feed G). Fish were fed the peptide enriched diet for 120 days (4 months) from 10 days of age (D0) to 130 days of age (D120) and the control diet for the last 6 months (159 days) (Feed E); • Treatment 6 (10 ppm from 100 dph for 30 days): The control diet with the addition of 10 mg peptide/kg of diet (Feed G). Fish were fed the peptide enriched diet for 30 days (1 month) from 100 days of age (D90) to 130 days of age (D120) and the control diet for the first three months (90 days from D0 to D90) and the last 6 months (159 days) (Feed E); • Treatment 7 (30 ppm from 10 dph for 60 days): The control diet with the addition of 30 mg peptide/kg of diet (Feed H). Fish were fed the peptide enriched diet for 60 days (2 months) from 10 days of age (D0) to 70 days of age (D60), and the control diet during the last 8 months (219 days) (Feed E); • Treatment 8 (30 ppm from 10 dph for 90 days): The control diet with the addition of 30 mg peptide/kg of diet (Feed H). Fish were fed the peptide enriched diet for 90 days (3 months) from 10 days of age (D0) to 100 days of age (D90) and the control diet for the last 7 months (189 days) (Feed E).
During the experimental period, fish weight and length were measured once a month. Individual fish sex was determined at days 96 and 279 of the experiment. Average fish weight per cage were calculated for each measurement period (FIG. 8). […] Between two weight measurements, average weight gain (FIG. 9A) and daily growth rates (FIG. 9B) were calculated by subtracting the average weight at the beginning and end of the measuring period and dividing by the number of days between.
In order to determine the efficiency of feed conversion into fish substance in experiments (#1, #2, #3), FCR values which reflect the amount of feed needed to grow a kilogram fish, were calculated for each period and for the entire fish growth period. […]

[1] = Treatment 5 (10 ppm from 10 dph for 120 days)
[2] = Treatment 5 (10 ppm from 10 dph for 120 days), female fish, D 96
[3] = Treatment 5 (10 ppm from 10 dph for 120 days), female fish, D 279
[4] = Treatment 5 (10 ppm from 10 dph for 120 days), male fish, D 96
[5] = Treatment 5 (10 ppm from 10 dph for 120 days), male fish, D 279
[6] = Treatment 6 (10 ppm from 100 dph for 30 days)
[7] = Treatment 6 (10 ppm from 100 dph for 30 days), of 442 fish
[8] = Treatment 6 (10 ppm from 100 dph for 30 days), female fish, D 96
[9] = Treatment 6 (10 ppm from 100 dph for 30 days), female fish, D 279
[10] = Treatment 6 (10 ppm from 100 dph for 30 days), male fish, D 96
[11] = Treatment 6 (10 ppm from 100 dph for 30 days), male fish, D 279
[12] = Treatment 7 (30 ppm from 10 dph for 60 days)
[13] = Treatment 7 (30 ppm from 10 dph for 60 days), of 427 fish
[14] = Treatment 7 (30 ppm from 10 dph for 60 days), female fish, D 96
[15] = Treatment 7 (30 ppm from 10 dph for 60 days), female fish, D 279
[16] = Treatment 7 (30 ppm from 10 dph for 60 days), male fish, D 96
[17] = Treatment 7 (30 ppm from 10 dph for 60 days), male fish, D 279
[18] = Treatment 8 (30 ppm from 10 dph for 90 days)
[19] = Treatment 8 (30 ppm from 10 dph for 90 days), of 446 fish
[20] = Treatment 8 (30 ppm from 10 dph for 90 days), female fish, D 96
[21] = Treatment 8 (30 ppm from 10 dph for 90 days), female fish, D 279
[22] = Treatment 8 (30 ppm from 10 dph for 90 days), male fish, D 96
[23] = Treatment 8 (30 ppm from 10 dph for 90 days), male fish, D 279

Substance: Succ-Asp-Ser- D-Trp -N(Me)Val-βAla-Leu-Met-NH2 (Suc-DS[dW][NMeV][βAla]LM-NH2; SMILES CSCC[C@H](NC(=O)[C@H](CC(C)C)NC(=O)CCNC(=O)[C@H](C(C)C)N(C)C(=O)[C@@H](Cc1c[nH]c2ccccc12)NC(=O)[C@H](CO)NC(=O)[C@H](CC(=O)O)NC(=O)CCC(=O)O)C(N)=O) [AN6]
- Average weight/fish (g) [1]: 3.29%
- Total weight/cage (g) [1]: 1.28%
- Length/fish (cm) Mean [2]: 15.95 cm
- Weight/fish (g) Mean [2]: 82.96 g
- Δ Mean % (Treatment vs. control) Length/fish [2]: 1.01%
- Δ Mean % (Treatment vs. control) Weight/fish [2]: 0.90%
- Length/fish (cm) Mean [3]: 30.33 cm
- Weight/fish (g) Mean [3]: 611.23 g
- Δ Mean % (Treatment vs. control) Length/fish [3]: 0.66%
- Δ Mean % (Treatment vs. control) Weight/fish [3]: 1.55%
- Length/fish (cm) Mean [4]: 17.08 cm
- Weight/fish (g) Mean [4]: 100.46 g
- Δ Mean % (Treatment vs. control) Length/fish [4]: −0.81%
- Δ Mean % (Treatment vs. control) Weight/fish [4]: −4.78%
- Length/fish (cm) Mean [5]: 34.21 cm
- Weight/fish (g) Mean [5]: 859.1 g
- Δ Mean % (Treatment vs. control) Length/fish [5]: −0.49%
- Δ Mean % (Treatment vs. control) Weight/fish [5]: −0.72%
- % big fish (Big fish 279 dph >1000 g) [6]: 12.9%
- % small fish (Small fish 279 dph >476 g) [6]: 6.6%
- Δ Treatment - Control (%) big fish (>1000 g) [6]: 2.7%
- Δ Treatment - Control (%) small fish (>476 g) [6]: −2.6%
- Big fish # (Big fish 279 dph >1000 g) [7]: 57
- Small fish # (Small fish 279 dph) [7]: 29
- Average FCR/cage [6]: 0.00%
- Average density (body/cage) [6]: −1.55%
- Average weight gain/fish (g) [6]: 2.11%
- Average weight/fish (g) [6]: 0.97%
- Total weight/cage (g) [6]: −0.53%
- Length/fish (cm) Mean [8]: 16.04 cm
- Weight/fish (g) Mean [8]: 87.28 g
- Δ Mean % (Treatment vs. control) Length/fish [8]: 1.58%
- Δ Mean % (Treatment vs. control) Weight/fish [8]: 6.15%
- Length/fish (cm) Mean [9]: 30.45 cm
- Weight/fish (g) Mean [9]: 617.44 g
- Δ Mean % (Treatment vs. control) Length/fish [9]: 1.06%
- Δ Mean % (Treatment vs. control) Weight/fish [9]: 2.58%
- Length/fish (cm) Mean [10]: 17.07 cm
- Weight/fish (g) Mean [10]: 105.78 g
- Δ Mean % (Treatment vs. control) Length/fish [10]: −0.87%
- Δ Mean % (Treatment vs. control) Weight/fish [10]: 0.27%
- Length/fish (cm) Mean [11]: 34.19 cm
- Weight/fish (g) Mean [11]: 863.26 g
- Δ Mean % (Treatment vs. control) Length/fish [11]: −0.55%
- Δ Mean % (Treatment vs. control) Weight/fish [11]: −0.24%
- % big fish (Big fish 279 dph >1000 g) [12]: 10.8%
- % small fish (Small fish 279 dph >476 g) [12]: 5.4%
- Δ Treatment - Control (%) big fish (>1000 g) [12]: 0.5%
- Δ Treatment - Control (%) small fish (>476 g) [12]: −3.7%
- Big fish # (Big fish 279 dph >1000 g) [13]: 46
- Small fish # (Small fish 279 dph) [13]: 23
- Average FCR/cage [12]: 0.00%
- Average density (body/cage) [12]: −4.89%
- Average weight gain/fish (g) [12]: 1.43%
- Average weight/fish (g) [12]: 1.37%
- Total weight/cage (g) [12]: −4.56%
- Length/fish (cm) Mean [14]: 15.73 cm
- Weight/fish (g) Mean [14]: 82.52 g
- Δ Mean % (Treatment vs. control) Length/fish [14]: −0.38%
- Δ Mean % (Treatment vs. control) Weight/fish [14]: 0.36%
- Length/fish (cm) Mean [15]: 30.53 cm
- Weight/fish (g) Mean [15]: 628.2 g
- Δ Mean % (Treatment vs. control) Length/fish [15]: 1.33%
- Δ Mean % (Treatment vs. control) Weight/fish [15]: 4.37%
- Length/fish (cm) Mean [16]: 17.78 cm
- Weight/fish (g) Mean [16]: 109.68 g
- Δ Mean % (Treatment vs. control) Length/fish [16]: 3.25%
- Δ Mean % (Treatment vs. control) Weight/fish [16]: 3.96%
- Length/fish (cm) Mean [17]: 34.04 cm
- Weight/fish (g) Mean [17]: 840.39 g
- Δ Mean % (Treatment vs. control) Length/fish [17]: −0.99%
- Δ Mean % (Treatment vs. control) Weight/fish [17]: −2.88%
- % big fish (Big fish 279 dph >1000 g) [18]: 20.4%
- % small fish (Small fish 279 dph >476 g) [18]: 5.6%
- Δ Treatment - Control (%) big fish (>1000 g) [18]: 10.2%
- Δ Treatment - Control (%) small fish (>476 g) [18]: −3.5%
- Big fish # (Big fish 279 dph >1000 g) [19]: 91
- Small fish # (Small fish 279 dph) [19]: 25
- Average FCR/cage [18]: −2.14%
- Average density (body/cage) [18]: −0.67%
- Average weight gain/fish (g) [18]: 13.57%
- Average weight/fish (g) [18]: 7.11%
- Total weight/cage (g) [18]: 6.23%
- Length/fish (cm) Mean [20]: 16.17 cm
- Weight/fish (g) Mean [20]: 89.02 g
- Δ Mean % (Treatment vs. control) Length/fish [20]: 2.41%
- Δ Mean % (Treatment vs. control) Weight/fish [20]: 8.27%
- Length/fish (cm) Mean [21]: 30.65 cm
- Weight/fish (g) Mean [21]: 649.16 g
- Δ Mean % (Treatment vs. control) Length/fish [21]: 1.73%
- Δ Mean % (Treatment vs. control) Weight/fish [21]: 7.85%
- Length/fish (cm) Mean [22]: 17.21 cm
- Weight/fish (g) Mean [22]: 106.64 g
- Δ Mean % (Treatment vs. control) Length/fish [22]: −0.06%
- Δ Mean % (Treatment vs. control) Weight/fish [22]: 1.08%
- Length/fish (cm) Mean [23]: 34.56 cm
- Weight/fish (g) Mean [23]: 912.05 g
- Δ Mean % (Treatment vs. control) Length/fish [23]: 0.52%
- Δ Mean % (Treatment vs. control) Weight/fish [23]: 5.40%
- average weight of males and females compared to their respective controls (differential analysis of male vs female performances): improved average weight
